{"source": "patent US6958318B2", "about": "“Recombinant bacterial cells for delivery of PNP to tumor cells” (The UAB Research Foundation, priority 1993, dated 2005)", "key": {"PNP transduced tumors": {"tested_on": "PNP transduced tumors", "type": "in vivo", "conditions": "67 mg/kg ip, qd×3 d"}, "[1]": {"assay": "Stability under tissue culture conditions (HPLC of supernatants)", "conditions": "HPLC analysis of supernatants"}, "E. coli PNP [2]": {"molecular_target": "T1, E. coli PNP (Escherichia coli, UniProt P0ABP8)", "T1 sequence (P0ABP8 2-239)": "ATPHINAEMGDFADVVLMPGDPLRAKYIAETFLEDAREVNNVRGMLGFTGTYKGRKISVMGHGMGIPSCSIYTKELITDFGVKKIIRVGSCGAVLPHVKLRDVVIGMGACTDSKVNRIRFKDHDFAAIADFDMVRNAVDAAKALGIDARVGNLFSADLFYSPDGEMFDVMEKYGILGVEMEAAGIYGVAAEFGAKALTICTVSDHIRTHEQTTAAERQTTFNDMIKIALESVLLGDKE", "type": "biochemical"}, "E. coli PNP [3]": {"molecular_target": "T1, E. coli PNP", "type": "biochemical", "remark": "listed apart in the source"}, "human PNP": {"molecular_target": "T2, human PNP (Homo sapiens, UniProt P00491)", "T2 sequence (P00491 1-289)": "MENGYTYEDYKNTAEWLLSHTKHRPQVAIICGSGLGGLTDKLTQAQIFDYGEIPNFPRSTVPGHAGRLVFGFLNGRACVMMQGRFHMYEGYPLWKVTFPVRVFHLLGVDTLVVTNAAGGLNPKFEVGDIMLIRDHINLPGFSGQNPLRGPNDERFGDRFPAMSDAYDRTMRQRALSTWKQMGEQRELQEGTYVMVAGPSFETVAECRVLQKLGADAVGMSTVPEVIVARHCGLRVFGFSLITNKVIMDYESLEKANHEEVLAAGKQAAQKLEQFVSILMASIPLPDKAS", "assay": "Cleavage of purine analog nucleosides by human PNP (HPLC)", "type": "biochemical"}, "16/C breast cancer cells": {"tested_on": "16/C breast cancer cells", "assay": "Bystander killing, mixed wild type and PNP-transduced 16/C cells", "type": "cell-based, murine", "conditions": "20 μg/ml"}, "wild-type 16/C tumors": {"tested_on": "wild-type 16/C tumors", "assay": "Wild-type 16/C tumors in B6C3F1 mice", "type": "in vivo", "method": "Transduced 16/C cells were implanted in mice by subcutaneous injection of approximately 10^6 cells harvested from the cultures of stably transduced 16/C cells described above. The mice were examined visibly for tumor growth and those with developing tumors were maintained. To prepare mice for use in the in vivo experiments, the tumors were removed from mice with significant tumor growth and cut into 30-60 mg pieces. One 30-60 mg piece of the tumor was subcutaneously implanted into the subaxillary region of each female B6C3F1 mouse. The tumors were allowed to develop and mice with tumors of 100 mm^3 were used.\nSix mice (B6C3F1) per group with established wild type 16/C tumors were treated with an aqueous control solution, MeP-dR (100 mg/kg IP qd×3d) or 2-fluoro-arabinofuranosyladenine monophosphate (F-araAMP) (100 mg/kg IP, […]). The wild type tumors grew rapidly in the presence or absence of either of the prodrugs. […] (Table III, Wild-type 16/C treatment)."}, "[4]": {"tested_on": "D54 parental tumor cells (D54-wt)", "assay": "Wild-type D54 glioma tumors in nude mice", "type": "in vivo", "method": "Female athymic nude mice (nu/nu) were implanted sc with 2×10^7 cells of either D54 parental tumor cells (D54-wt) or D54 tumor cells that had been transduced with the E. coli PNP (D54-PNP). After the tumors had grown to approximately 150 mg, they were treated ip with either vehicle or 67 mg/kg of MeP-dR (IP) once a day for 3 days (days 6, 7 and 8 after implantation). The tumor sizes were measured twice a week after treatment.\nA confirmation experiment was set up exactly as described above, except that animals were treated with two doses of MeP-dR (45 and 67 mg/kg) (FIGS. 10 and 11). The results of this experiment were similar (Table V). There were 8 of 10 complete regressions in mice bearing the D54-PNP tumors that were treated with 67 mg/kg of MeP-dR. In 4 mice the tumors subsequently returned and grew. There were still 4 of 10 tumor-free survivors 60 days after the treatment had stopped. […] There were 2 of 10 complete regressions and 3 partial responses. […] The delay in the time required to double twice due to treatment with MeP-dR was 5 to 6 days in the non-transduced tumors and greater than 24 days in transduced tumors. In this experiment, the growth rate of the D54-PNP tumors was considerably slower than it was in the first experiment. There was no change in the growth rate of the D54-wt tumors. The reason for the slow growth rate of the D54-PNP tumors in this experiment is not known. […] (In other words, if a tumor was too small to measure, it was not included in the average size). This means that the overall tumor regressions in the D54 PNP group are actually much more pronounced than they appear in FIGS. 8-11."}, "[5]": {"conditions": "IP for three days, MeP-dR 100, F-araAMP 500 mg/kg/day"}}, "note": "“And” between values parts separate entries of the source, which are not always exact repeats. Identical values can stand only once. “Also recorded” adds a separate entry of the source. Like-named read-outs stand apart in the source and are kept apart here.", "data": [{"smiles": "Cc1ncnc2c1ncn2[C@H]1C[C@H](O)[C@@H](CO)O1", "note": "[MeP-dR, 9-(β-D-2-deoxyerythropentofuranosyl)-6-methylpurine]", "values": [{"measurement": "Effect on very large pre-existing PNP transduced tumors (approximately 1 gram)", "setting": "PNP transduced tumors", "result": "impressive regression"}, {"measurement": "Stability under tissue culture conditions", "setting": "[1]", "result": "stable"}, {"measurement": "Background activity in cell free extracts", "setting": "E. coli PNP [2]; non-transduced 16/C and B16 cells", "result": 0}, {"measurement": "E. coli PNP activity in cell free extracts", "setting": "E. coli PNP [2]; transduced 16/C cells, n=6", "result": "10.7 nmoles MeP-dR converted/mg cell protein/hr"}, {"measurement": "E. coli PNP activity in cell free extracts", "setting": "E. coli PNP [2]; transduced B16 cells, n=2", "result": "2.4 nmoles MeP-dR converted/mg cell protein/hour"}, {"measurement": "Percent of substrate cleaved by E. coli PNP, 100 μM", "setting": "E. coli PNP [3]", "result": "91(86)45(21) Percent and 93(87)29(24) Percent"}, {"measurement": "Percent of substrate cleaved by E. coli PNP, 1 mM", "setting": "E. coli PNP [3]", "result": "91(86)45(21) Percent and 93(87)29(24) Percent"}, {"measurement": "Substrate quality for bacterial (E. coli) PNP", "setting": "E. coli PNP [3]", "result": "good substrates"}, {"measurement": "Percent of substrate cleaved by Human PNP, 100 μM", "setting": "human PNP", "result": "0(86) Percent and 0%"}, {"measurement": "Percent of substrate cleaved by Human PNP, 1 mM", "setting": "human PNP", "result": "0(47) Percent and 0%"}, {"measurement": "Substrate quality for mammalian (human) PNP", "setting": "human PNP", "result": "poor substrates"}, {"measurement": "Toxicity to untransduced 16/C cells", "setting": "16/C breast cancer cells", "result": "not toxic"}, {"measurement": "Cell proliferation when as few as 2% of cells express E. coli PNP", "setting": "16/C breast cancer cells; mixed culture", "result": "completely eliminated cell proliferation; also recorded: Complete abrogation of cellular proliferation"}, {"measurement": "Share of cells expressing PNP required for total population cell killing", "setting": "16/C breast cancer cells; LDH release assay", "result": 1, "unit": "%"}, {"measurement": "Complete Regressions/Total", "setting": "wild-type 16/C tumors; [5]", "result": "0/6"}, {"measurement": "Day delay (Treated-control)", "setting": "wild-type 16/C tumors; [5]", "result": 2.4, "unit": "days"}, {"measurement": "Nonspecific Deaths/Total", "setting": "wild-type 16/C tumors; [5]", "result": "0/6"}, {"measurement": "Delay in tumor growth, in words", "setting": "wild-type 16/C tumors; wild type 16/C", "result": "no statistically significant delay in tumor growth"}, {"measurement": "Effect on wild-type D54 tumors, in words", "setting": "[4]; 45 or 67 mg/kg", "result": "little effect; also recorded: no partial of complete remissions; also recorded: did not affect parental D54 tumor cell growth"}, {"measurement": "Days Delay (T-C)", "setting": "[4]; Table IV, 67 mg/kg", "result": 7, "unit": "days"}, {"measurement": "Doubling time", "setting": "[4]; Table IV, 67 mg/kg", "result": 21}, {"measurement": "Nonspecific Deaths/Total", "setting": "[4]; Table IV, 67 mg/kg", "result": "1/6"}, {"measurement": "Regressions Partial", "setting": "[4]; Table IV, 67 mg/kg", "result": "0/6"}, {"measurement": "Tumor-free Survival", "setting": "[4]; Table IV, 67 mg/kg", "result": "0/6"}, {"measurement": "Regressions Complete", "setting": "[4]; Table IV, 67 mg/kg IP once a day for three days", "result": "0/6"}, {"measurement": "Days Delay (T-C)", "setting": "[4]; Table V, 45 mg/kg", "result": 5, "unit": "days"}, {"measurement": "Doubling time", "setting": "[4]; Table V, 45 mg/kg", "result": 17}, {"measurement": "Nonspecific Deaths/Total", "setting": "[4]; Table V, 45 mg/kg", "result": "0/10"}, {"measurement": "Regressions Partial", "setting": "[4]; Table V, 45 mg/kg", "result": "0/10"}, {"measurement": "Tumor-free Survival", "setting": "[4]; Table V, 45 mg/kg", "result": "0/10"}, {"measurement": "Regressions Complete", "setting": "[4]; Table V, 45 mg/kg IP once a day for three days", "result": "0/10"}, {"measurement": "Days Delay (T-C)", "setting": "[4]; Table V, 67 mg/kg", "result": 6, "unit": "days"}, {"measurement": "Doubling time", "setting": "[4]; Table V, 67 mg/kg", "result": 18}, {"measurement": "Nonspecific Deaths/Total", "setting": "[4]; Table V, 67 mg/kg", "result": "0/10"}, {"measurement": "Regressions Partial", "setting": "[4]; Table V, 67 mg/kg", "result": "0/10"}, {"measurement": "Tumor-free Survival", "setting": "[4]; Table V, 67 mg/kg", "result": "0/10"}, {"measurement": "Regressions Complete", "setting": "[4]; Table V, 67 mg/kg IP once a day for three days", "result": "0/10"}]}]}
